Measurements: patent publication US5869487A, “Pyrido[3,4-B]pyrazines for use as thrombin inhibitors” (Merck & Co., Inc., priority 1997, dated 1999)

Target: T1, human α-thrombin (Homo sapiens, UniProt P00734)
T1 construct: Assays of human α-thrombin
Assay: In vitro assay for determining proteinase inhibition (human α-thrombin)
Format: biochemical
Settings: 25° C., 0.05M TRIS buffer pH 7.4, 0.15M NaCl, 0.1% PEG; sar-PR-pna or Z-GPR-afc substrate
Description: In vitro assay for determining proteinase inhibition
Assays of human α-thrombin and human trypsin were performed at 25° C. in 0.05M TRIS buffer pH 7.4, 0.15M NaCl, 0.1% PEG. Trypsin assays also contained 1 mM CaCl2.
In assays wherein rates of hydrolysis of a p-nitroanilide (pna) substrate were determined, a Thermomax 96-well plate reader was used to measure (at 405 nm) the time dependent appearance of p-nitroaniline. sar-PR-pna (sarcosine-Pro-Arg-p-nitroanilide) was used to assay human α-thrombin (Km =125 μM) and human trypsin (Km =59 μM). p-Nitroanilide substrate concentration was determined from measurements of absorbance at 342 nm using an extinction coefficient of 8270 cm^-1 M^-1.
In certain studies with potent inhibitors (Ki <10 nM) where the degree of inhibition of thrombin was high, a more sensitive activity assay was employed. In this assay the rate of thrombin catalyzed hydrolysis of the fluorogenic substrate Z-GPR-afc (Cbz-Gly-Pro-Arg-7-amino-4-trifluoromethylcoumarin) (Km =27 μM) was determined from the increase in fluorescence at 500 nm (excitation at 400 nm) associated with production of 7-amino-4-trifluoromethyl coumarin. Concentrations of stock solutions of Z-GPR-afc were determined from measurements of absorbance at 380 nm of the 7-amino-4-trifluoromethyl coumarin produced upon complete hydrolysis of an aliquot of the stock solution by thrombin.
Activity assays were performed by diluting a stock solution of substrate at least tenfold to a final concentration 0.5 Km into a solution containing enzyme or enzyme equilibrated with inhibitor. Times required to achieve equilibration between enzyme and inhibitor were determined in control experiments. Initial velocities of product formation in the absence (Vo) or presence of inhibitor (Vi) were measured. Assuming competitive inhibition, and that unity is negligible compared Km /[S], […] (where [S], [I], and e respectively represent the total concentrations, of substrate, inhibitor and enzyme), the equilibrium constant (Ki) for dissociation of the inhibitor from the enzyme can be obtained from the dependence of Vo /Vi on [I] shown in equation 1.

SMILES | Ki [nM]
Cc1nc(N)ccc1CNC(=O)Cn1c(C)cc2c(c1=O)NC(=O)[C@@H]1CCCCN21 | > 1
Cc1cc2c(c(=O)n1CC(=O)NCc1cc(Cl)ccc1OCC(=O)NC1CC1)NC(=O)[C@H](Cc1ccccc1)N2 | < 1
Cc1cc2c(c(=O)n1CC(=O)NCc1ccc(N)nc1)NC(=O)[C@H](CC1CC1)N2C | < 1
Cc1nc(N)ccc1CNC(=O)Cn1c(C)cc2c(c1=O)NC(=O)CN2Cc1ccccc1 | > 1

The remaining lines, values ahead:

Ki [nM] | SMILES
< 1 | Cc1nc(N)ccc1CNC(=O)Cn1c(C)cc2c(c1=O)NC(=O)[C@H](CC1CC1)N2C
< 1 | Cc1nc(N)ccc1CNC(=O)Cn1c(C)cc2c(c1=O)NC(=O)[C@H](Cc1ccccc1)N2
< 1 | Cc1nc(N)ccc1CNC(=O)Cn1c(C)cc2c(c1=O)NC(=O)[C@H](CC1CC1)N2
< 1 | Cc1cc2c(c(=O)n1CC(=O)NCc1ccccc1OCC(=O)NC1CC1)NC(=O)[C@H](CC1CC1)N2C
